Holding throughout (experiment): Mass spectroscopy proteomics, semi-quantitative binding affinity of serum proteins (plaqueproteome, Table 2)
Holding throughout (settings): higher number = stronger affinity

Assay [1] concerns the target T1, Abeta-42 plaque particles (Homo sapiens, UniProt P05067).
T1 construct: Abeta 1-42
As for the experimental part: Next to isolate serum derived Abeta-42 plaque particles, the plasma or serum samples obtained from AD subjects were first centrifuged at 5,000 rpm for 5 min and the supernatants were transferred to new centrifuge tubes. Next, the supernatants were diluted in PBS to make 50% of the serum and plasma samples and used for incubation with Abeta-42 plaque oligomers/aggregates. Each assay was performed in 1 mL reaction (800 μL of 50% plasma or serum) and 200 μL (30 μg) of the Abeta-42 aggregates and the mixtures were incubated at 37° C. for 1 hr. To the mixture Thioflavin S dye (120 μg) was added and the sample was incubated for additional 30 min at 37° C. After the incubation, the mixture was directly used for sample acquisition using flow cytometer (FACS ARIA II, BD Biosciences, San Jose, Calif.). After initial detection of Abeta-42 plaque particles in the acquisition blot, gates were drawn in fluorescent dot blot to separately sort and isolate fluorescently labeled Abeta-42 particles.
(§1) For preparing trypsin digested peptide sequences, the isolated plaque particles were centrifuged at 10000 rpm for 5 min and the pellet containing plaque particles was resuspended in 100 μl PBS buffer. Stock solutions of digestion buffer (Ammonium Biocarbonate 50 mM), reducing buffer (DDT 100 mM) and alkylation buffer (lodoaceamide 100 mM) were prepared and stored at −20° C. for up to two months. For trypsin digestion, 100 μl of each plaque particles (2000 of Abeta-42, cholesterol, Tau and alpha-synuclein) were precipitated using cold acetone −80° C. by adding 4X's the volume. The samples were placed on dry ice for 10 min with intermittent vortex. Next, the samples were centrifuged at 4° C. at 10000 G for 10 min. Top layer of acetone was carefully removed from the tube with care not to disturb the plaque particles pellet. The samples were speed-vac for 10 min to ensure all acetone has been boiled away. The plaque particles pellet were reconstituted with 15 μl 8M Urea 100 mM Ammonium bicarbonate stock and 20 μl protease max solution. The protease max solution (Promega, Madison, Wis.) was prepared from stock by adding 60 μl 50 mM Ammonium bicarbonate and used for 3 solution digests (20 μl each). […] The tubes were incubated at 55° C. for 30 minutes. The tubes were then removed and brought to the room temperature followed by addition of 3.2 μl of 1M acrylamide and incubated at room temperature for 30 minutes. To the sample, 63 μL of 50 mM Ammonium bicarbonate was added for a final volume of 98 μl and 2 μl of trypsin (10 μg, Trypsin/Lys C Mix). After mixing the solution with pipet the samples were incubated at 37° C. overnight. After the overnight digest, the tryptic digest were quenched and acidified by adding 10 μl of 50% formic acid/water stock dilution. The samples were centrifuged at 10000 G for 2 minutes and purified using stage tip and used for MS/Mass analysis.
(§2) All MS/MS samples were analyzed using Sequest (Thermo Fisher Scientific, San Jose, Calif., USA; version 1.0). Sequest was set up to search the SUMS_uniprot_Human database (35847 entries) assuming the digestion enzyme strict trypsin. Sequest was searched with a fragment ion mass tolerance of 1.00 Da and a parent ion tolerance of 20 PPM. Propionamide of cysteine was specified in Sequest as a fixed modification. Oxidation of methionine and phospho of serine, threonine and tyrosine were specified in Sequest as variable modifications.
Scaffold (version Scaffold_4.2.1, Proteome Software Inc., Portland, Oreg.) was used to validate MS/MS based peptide and protein identifications. […] Protein probabilities were assigned by the Protein Prophet algorithm (Nesvizhskii, Al et al 2003). […] Proteins sharing significant peptide evidence were grouped into clusters. Proteins were annotated with GO terms from NCBI (downloaded Jan. 17, 2014).

For assay [2], the system named is High Density cholesterol (Chl Large) plaque particles. Set-up: species or system human. As for the experimental part:
(§3) The goal was to isolate plaque particles synthesized in the bio-fluids in a relatively pure form to enable their subsequent use for identification of components that contribute to the plaque formation. In order to isolate cholesterol plaque particles, the plasma or serum samples obtained from atherosclerotic subjects were first centrifuged at 5,000 rpm for 5 min and the supernatants were transferred to new centrifuge tubes. Next, the supernatants were diluted in PBS to make 50% of the serum and used for incubation with cholesterol oligomers/aggregates. Each assay was performed in 1 mL reaction (800 μL of 50% plasma or serum) and 200 μL (30 μg) of the Cholesterol aggregates and the mixtures were incubated at 37° C. for 1 hr After the incubation, the mixture was directly used for sample acquisition using flow cytometer (FACS ARIA II, BD Biosciences, San Jose, Calif.). […] In order to isolate these fractions, three sets of gates were drawn in the acquisition blot to separately sort and isolate High density or high complex cholesterol particles, Low density or low complex cholesterol particles and both High and low density cholesterol particles together.
as §1, §2
(§4) Scaffold (version Scaffold_4.2.1, Proteome Software Inc., Portland, Oreg.) was used to validate MS/MS based peptide and protein identifications. […] Protein probabilities were assigned by the Protein Prophet algorithm (Nesvizhskii, Al et al 2003).

Assay [3] deals with Low density cholesterol (Chl small) plaque particles. The arrangement: species or system human. As for the experimental part: as §3, §1, §2, §4
Assay [4] deals with T2, alpha-synuclein plaque particles (Homo sapiens, UniProt P37840).
T2 construct: 140 amino acids polypeptide
As for the experimental part: To prepare oligomers/aggregates of human alpha-synuclein (140 amino acids polypeptide), 1 mg of the recombinant alpha-synuclein protein was suspended in 1 mL of PBS and the sample was incubated at 37° C. for 2 hrs. After incubation, all the samples were centrifuged for 5 min. at 5000 rpm to remove precipitate, if any, and the supernatant containing oligomers/aggregates were used in vitro plaque particles formation assay. For detecting alpha-synuclein plaque particles Thioflavin S (Ex/Em=430 nm/550 nm) amyloid binding fluorescent dye (10 μg) was used.
Similarly, to isolate alpha-synuclein plaque particles, diluted plasma or serum samples obtained from AD subjects were used for incubation with alpha-synuclein plaque oligomers/aggregates. Each assay was performed in 1 mL reaction (800 μL of 50% plasma or serum) and 200 μL (30 μg) of the alpha-synuclein aggregates and the mixtures were incubated at 37° C. for 1 hr. To the mixture Thioflavin S dye (120 μg) was added and the sample was incubated for additional 30 min at 37° C. After the incubation, the mixture was directly used for sample acquisition using flow cytometer (FACS ARIA II, BD Biosciences, San Jose, Calif.). After initial detection of alpha-synuclein plaque particles, gates were drawn in the acquisition blot to separately sort and isolate fluorescently labeled alpha-synuclein particles.
as §1, §2
Scaffold (version Scaffold_4.2.1, Proteome Software Inc., Portland, Oreg.) was used to validate MS/MS based peptide and protein identifications.

For another assay, the system named is Tau plaque particles. Set-up: species or system human. As for the experimental part:
For Tau-74 (74-102) (Exon 3/Insert 2 domain) preparation, 1 mg of Tau-74 was suspended in 1 mL of PBS and the sample was incubated at 37° C. for 2 hrs. Similarly for preparing Tau-275 (275-305) (Repeat 2 domain) 1 mg of the peptide was suspended in 1 mL of PBS and the sample was incubated at 37° C. for 2 hrs. After incubation, all the samples were centrifuged for 5 min. at 5000 rpm to remove precipitate, if any, and the supernatant containing oligomers/aggregates were used for in vitro amyloid plaque particles formation assay. For detecting Tau plaque particles, Thioflavin S (Ex/Em=430 nm/550 nm) amyloid binding fluorescent dye (10 μg) was used in the assay.
Next, to isolate Tau plaque particles, as performed for Abeta-42 and Abeta-28 plaque particles isolation, diluted serum samples were used for incubation separately with Tau-45, Tau-74 and Tau-275 oligomers/aggregates. Each assay was performed in 1 mL reaction (800 μL of 50% plasma or serum) and 200 μL (30 μg) of each Tau aggregates and the mixtures were incubated at 37° C. for 1 hr. To the each mixture Thioflavin S dye (120 μg) was added and the sample was incubated for additional 30 min at 37° C. After the incubation, each sample was directly used for sample acquisition using flow cytometer (FACS ARIA II, BD Biosciences, San Jose, Calif.). After initial detection of Tau plaque particles, gates were drawn in the acquisition blot to separately sort and isolate fluorescently labeled Tau plaque particles.
as §1, §2

The source of these data is patent publication US9618524B2, “Method, composition, isolation and identification of a plaque particle and related biomarker” (Plaxgen Inc., priority 2012, dated 2017).

For Cluster of Ig lambda-2 chain C regions, the “Semi-quantitative analysis of proteins binding to different plaque particles: Abeta-42” value in assay [1] is recorded as 9. Further, the “Semi-quantitative analysis of proteins binding to different plaque particles: Chl Large” value in assay [2] is 5. Moreover, in assay [3], the “Semi-quantitative analysis of proteins binding to different plaque particles: Chl small” value was determined as 9. Further, the “Semi-quantitative analysis of proteins binding to different plaque particles: Synuclein” value in assay [4] came out at 8. Further, the “Semi-quantitative analysis of proteins binding to different plaque particles: Tau” value with Tau plaque particles was 11.
Take Cluster of Nucleolar RNA helicase 2: the “Semi-quantitative analysis of proteins binding to different plaque particles: Abeta-42” value in assay [1] worked out at 2. The “Semi-quantitative analysis of proteins binding to different plaque particles: Chl Large” value in assay [2] is given as 0. Further, the “Semi-quantitative analysis of proteins binding to different plaque particles: Chl small” value in assay [3] is 0. Further, the “Semi-quantitative analysis of proteins binding to different plaque particles: Synuclein” value in assay [4] is listed as 0. In addition, the “Semi-quantitative analysis of proteins binding to different plaque particles: Tau” value in the assay on Tau plaque particles was determined as 0.
In the case of Cluster of Platelet factor 4, the “Semi-quantitative analysis of proteins binding to different plaque particles: Abeta-42” value in assay [1] amounted to 2. Moreover, the “Semi-quantitative analysis of proteins binding to different plaque particles: Chl Large” value in assay [2] is recorded as 1. Also, the “Semi-quantitative analysis of proteins binding to different plaque particles: Chl small” value in assay [3] was 0. In addition, the “Semi-quantitative analysis of proteins binding to different plaque particles: Synuclein” value in assay [4] is recorded as 1. The “Semi-quantitative analysis of proteins binding to different plaque particles: Tau” value with Tau plaque particles was found to be 1.
Regarding Coagulation factor XII, the “Semi-quantitative analysis of proteins binding to different plaque particles: Abeta-42” value in assay [1] turned out to be 0. Besides, the “Semi-quantitative analysis of proteins binding to different plaque particles: Chl Large” value in assay [2] came to 0. In assay [3], the “Semi-quantitative analysis of proteins binding to different plaque particles: Chl small” value was 0. In assay [4], the “Semi-quantitative analysis of proteins binding to different plaque particles: Synuclein” value was found to be 1. In addition, in the assay on Tau plaque particles, the “Semi-quantitative analysis of proteins binding to different plaque particles: Tau” value is 1.
Regarding Complement C1q subcomponent subunit B, the “Semi-quantitative analysis of proteins binding to different plaque particles: Abeta-42” value in assay [1] came out at 0. Also, the “Semi-quantitative analysis of proteins binding to different plaque particles: Chl Large” value in assay [2] is on record as 1. Besides, in assay [3], the “Semi-quantitative analysis of proteins binding to different plaque particles: Chl small” value is given as 0. The “Semi-quantitative analysis of proteins binding to different plaque particles: Synuclein” value in assay [4] is listed as 2. In addition, in the assay with Tau plaque particles, the “Semi-quantitative analysis of proteins binding to different plaque particles: Tau” value was 2.
Complement C1q subcomponent subunit C: the “Semi-quantitative analysis of proteins binding to different plaque particles: Abeta-42” value in assay [1] worked out at 0. Besides, the “Semi-quantitative analysis of proteins binding to different plaque particles: Chl Large” value in assay [2] was 1. Besides, in assay [3], the “Semi-quantitative analysis of proteins binding to different plaque particles: Chl small” value is given as 1. In assay [4], the “Semi-quantitative analysis of proteins binding to different plaque particles: Synuclein” value turned out to be 1. In addition, the “Semi-quantitative analysis of proteins binding to different plaque particles: Tau” value with Tau plaque particles amounted to 2.
Complement C1s subcomponent: the “Semi-quantitative analysis of proteins binding to different plaque particles: Abeta-42” value in assay [1] was determined as 0. In assay [2], the “Semi-quantitative analysis of proteins binding to different plaque particles: Chl Large” value is given as 3. In addition, in assay [3], the “Semi-quantitative analysis of proteins binding to different plaque particles: Chl small” value stood at 1. The “Semi-quantitative analysis of proteins binding to different plaque particles: Synuclein” value in assay [4] was 1. In addition, in the assay on Tau plaque particles, the “Semi-quantitative analysis of proteins binding to different plaque particles: Tau” value amounted to 2.
Consider Complement C3, for which the “Semi-quantitative analysis of proteins binding to different plaque particles: Abeta-42” value in assay [1] worked out at 63. Besides, the “Semi-quantitative analysis of proteins binding to different plaque particles: Chl Large” value in assay [2] is on record as 73. Moreover, in assay [3], the “Semi-quantitative analysis of proteins binding to different plaque particles: Chl small” value turned out to be 67. Also, the “Semi-quantitative analysis of proteins binding to different plaque particles: Synuclein” value in assay [4] turned out to be 71. In addition, the “Semi-quantitative analysis of proteins binding to different plaque particles: Tau” value in the assay with Tau plaque particles is 85.
For Complement C4-A, in that order: 28, 44, 36, 37 and 50.
For Complement C4-B, in that order: 32, 44, 35, 37 and 52.
Turning to Complement C5, the “Semi-quantitative analysis of proteins binding to different plaque particles: Abeta-42” value in assay [1] was 0. For the same substance, in assay [2], the “Semi-quantitative analysis of proteins binding to different plaque particles: Chl Large” value is on record as 5. Besides, the “Semi-quantitative analysis of proteins binding to different plaque particles: Chl small” value in assay [3] was found to be 3. Moreover, the “Semi-quantitative analysis of proteins binding to different plaque particles: Synuclein” value in assay [4] was 4. In the assay with Tau plaque particles, the “Semi-quantitative analysis of proteins binding to different plaque particles: Tau” value came out at 1.
